Results published in PMC4026281 (Journal of neurochemistry, 2012).
“Also recorded” adds a separate entry of the source.

Assays:
[1] = test system: α6β2*-nAChR, crude striatal synaptosomes; assay type: biochemical, mouse
[2] = test system: α6β2* and α3β2* nAChR; conditions: cited from earlier work
[3] = test system: α6* nAChRs, crude rat striatal synaptosomes; conditions: cited from earlier work
[4] = test system: nAChRs on SuSC GABAergic terminals (crude synaptosomes); assay type: biochemical, mouse

α-conotoxin PIA [α-CtxPIA]
inhibition of ACh-stimulated [^3H]-dopamine release [1]: 24.2 ± 3.3%
subtypes inhibited by the α-conotoxin [2]: selective inhibitor of α6β2*-nAChR
reversibility of inhibition of DA release [3]: slowly reversible
IC50 ([3]; read-out: IC50, inhibition of DA release stimulated by nicotine or ACh): 1.48 nM
effect on ACh-evoked [^3H]-GABA release (abstract) [4]: did not affect [^3H]-GABA release
inhibition of ACh-stimulated [^3H]-GABA release by 100nM α-CtxPIA [4]: completely unable to inhibit
inhibition of ACh-stimulated [^3H]-GABA release by α-CtxPIA [4]: could not be reliably fit to an inhibition model; also recorded: no significant inhibition
